US20260285888A1, “HETEROCYCLIC COMPOUND AND USE THEREOF” (OTSUKA PHARMACEUTICAL CO., LTD., priority 2023, published 2026)

Assay: Study for confirmation of conversion to brexpiprazole in a buffer (stability of the evaluation compounds)
Type: physicochemical
Settings: in buffer, average of duplicate; for Concentration of brexpiprazole formed: 60-minute reaction sample; for Concentration of evaluation compound decreased: decrease in 60-minute vs 0-minute reaction sample
Description: The conversion from the evaluation compounds to brexpiprazole in a buffer (i.e., the stability of the evaluation compounds) was evaluated.
The Example 1 compound was dissolved in acetonitrile/water (1:1, v/v) to 10 mmol/L and further diluted with acetonitrile/water (1:1, v/v) to 100 μmol/L for use.
The other Example compounds and the Reference Example 5 compound to Reference Example 7 compound were each dissolved in DMSO to 10 mmol/L and further diluted with acetonitrile to 100 μmol/L for use, except for the following compounds.
The compounds of Examples 52, 95, 96, 117, and 130 (EX 52, EX 95, EX 96, EX 117, and EX 130) were dissolved in acetonitrile/water (8:2, v/v) to 10 mmol/L and further diluted with acetonitrile to 100 μmol/L for use.
The compound of Example 97 (EX 97) was dissolved in acetonitrile/water (8:2, v/v) to 10 mmol/L and further diluted with acetonitrile/water (8:2, v/v) to 100 μmol/L for use.
The compounds of Examples 15 and 116 (EX 15 and EX 116) were dissolved in DMSO to 1 mmol/L and further diluted with acetonitrile to 100 μmol/L for use.
The reaction was conducted by preparing each reaction solution such that the final concentration of each component was as follows. The test was conducted in duplicate.
For the compounds of Examples 1 to 8, 10 to 19, 26 to 27, 37, 50, 87 to 89, 91, 116, 121, 123, 150, and 151 (EX 1 to EX 8, EX 10 to EX 19, EX 26 to EX 27, EX 37, EX 50, EX 87 to EX 89, EX 91, EX 116, EX 121, EX 123, EX 150, and EX 151), and the compounds of Reference Examples 5 to 7 (REX 5 to REX 7), the reaction solution without the evaluation compound (198 μl) was pre-incubated at 37° C. for 3 minutes, and then each of the evaluation compound solutions (2 μl) was added and stirred; thereafter, the reaction was started at 37° C. At 0 minutes or 60 minutes after the start of the reaction, the reaction was stopped by adding and stirring a reaction stop solution (1000 μl) composed of acetonitrile/isopropanol (4:1, v/v) containing internal standard substances. However, the 0-minute reaction sample (198 μl) was prepared by adding the evaluation compound (2 μl) after adding the reaction stop solution (1000 μl). The samples after stopping the reaction were used as the measurement samples. Calibration curve samples with the same composition were prepared (final concentrations of the evaluation compounds and brexpiprazole: 0.01, 0.1, and 1 μmol/L, with the proviso that for the evaluation compounds only, the 0-minute reaction samples were also used as calibration curve samples for 1 μmol/L).
For the compounds of Examples 24 to 25, 28 to 29, 32 to 36, 40 to 49, 51 to 60, 62 to 64, 66 to 77, 80 to 86, 90, 92 to 111, 113, 115, 117 to 120, 122, 124 to 130, 132 to 147, and 152 to 160 (EX 24 to EX 25, EX 28 to EX 29, EX 32 to EX 36, EX 40 to EX 49, EX 51 to EX 60, EX 62 to EX 64, EX 66 to EX 77, EX 80 to EX 86, EX 90, EX 92 to EX 111, EX 113, EX 115, EX 117 to EX 120, EX 122, EX 124 to EX 130, EX 132 to EX 147, and EX 152 to EX 160), the reaction solution without the evaluation compound (148.5 μl) was pre-incubated at 37° C. for 3 minutes, and then each of the evaluation compound solutions (1.5 μl) was added and stirred; thereafter, the reaction was started at 37° C. At 0 minutes or 60 minutes after the start of the reaction, the reaction was stopped by adding and stirring a reaction stop solution (600 μl) composed of acetonitrile/isopropanol (4:1, v/v) containing internal standard substances. However, the 0-minute reaction sample (148.5 μl) was prepared by adding the evaluation compound (1.5 μl) after adding the reaction stop solution (600 μl). The samples after stopping the reaction were used as the measurement samples. Calibration curve samples with the same composition were prepared (final concentrations of the evaluation compounds and brexpiprazole: 0.01, 0.1, and 1 μmol/L, with the proviso that for the evaluation compounds only, the 0-minute reaction samples were also used as calibration curve samples for 1 μmol/L). […]

Row | SMILES | Concentration of brexpiprazole formed [µM] | Concentration of evaluation compound decreased [µM]
1 | CC(C)(C)OP(=O)([O-])OC[N+]1(CCCCOc2ccc3ccc(=O)[nH]c3c2)CCN(c2cccc3sccc23)CC1 [EX 4, (4-(benzo[b]thiophen-4-yl)-1-(4-((2-oxo-1,2-dihydroquinolin-7-yl)oxy)butyl)piperazin-1-ium-1-yl)methyl tert-butyl phosphate] | 0.00 | 0.02
2 | CC(C)OP(=O)([O-])OC[N+]1(CCCCOc2ccc3ccc(=O)[nH]c3c2)CCN(c2cccc3sccc23)CC1 [EX 5, (4-(benzo[b]thiophen-4-yl)-1-(4-((2-oxo-1,2-dihydroquinolin-7-yl)oxy)butyl)piperazin-1-ium-1-yl)methyl isopropyl phosphate] | 0.00 | 0.07
3 | O=c1ccc2ccc(OCCCC[N+]3(COP(=O)([O-])OCCCO)CCN(c4cccc5sccc45)CC3)cc2[nH]1 [EX 6, (4-(benzo[b]thiophen-4-yl)-1-(4-((2-oxo-1,2-dihydroquinolin-7-yl)oxy)butyl)piperazin-1-ium-1-yl)methyl (3-hydroxypropyl) phosphate] | 0.00 | -0.11
4 | CC(C)(C)C(=O)OCOP(=O)([O-])OC[N+]1(CCCCOc2ccc3ccc(=O)[nH]c3c2)CCN(c2cccc3sccc23)CC1 [EX 25, (4-(benzo[b]thiophen-4-yl)-1-(4-((2-oxo-1,2-dihydroquinolin-7-yl)oxy)butyl)piperazin-1-ium-1-yl)methyl ((pivaloyloxy)methyl) phosphate] | 0.00 | -0.01
5 | CCCCCCCC(=O)OCOP(=O)([O-])OC[N+]1(CCCCOc2ccc3ccc(=O)[nH]c3c2)CCN(c2cccc3sccc23)CC1 [EX 27, (4-(benzo[b]thiophen-4-yl)-1-(4-((2-oxo-1,2-dihydroquinolin-7-yl)oxy)butyl)piperazin-1-ium-1-yl)methyl ((octanoyloxy)methyl) phosphate] | 0.00 | 0.00
6 | CCCCCCCCOP(=O)([O-])OC[N+]1(CCCCOc2ccc3ccc(=O)[nH]c3c2)CCN(c2cccc3sccc23)CC1 [EX 37, (4-(benzo[b]thiophen-4-yl)-1-(4-((2-oxo-1,2-dihydroquinolin-7-yl)oxy)butyl)piperazin-1-ium-1-yl)methyl octyl phosphate] | 0.00 | 0.06
7 | COc1ccc(C(=O)OCCCCCCOP(=O)([O-])OC[N+]2(CCCCOc3ccc4ccc(=O)[nH]c4c3)CCN(c3cccc4sccc34)CC2)cc1 [EX 58, (4-(benzo[b]thiophen-4-yl)-1-(4-((2-oxo-1,2-dihydroquinolin-7-yl)oxy)butyl)piperazin-1-ium-1-yl)methyl (6-((4-methoxybenzoyl)oxy)hexyl) phosphate] | 0.00 | 0.04
8 | CC(C)(C)OC(=O)CCCC(=O)OCOP(=O)([O-])OC[N+]1(CCCCOc2ccc3ccc(=O)[nH]c3c2)CCN(c2cccc3sccc23)CC1 [EX 69, (4-(benzo[b]thiophen-4-yl)-1-(4-((2-oxo-1,2-dihydroquinolin-7-yl)oxy)butyl)piperazin-1-ium-1-yl)methyl (((5-(tert-butoxy)-5-oxopentanoyl)oxy)methyl) phosphate] | 0.00 | -0.01

Continued, values first:

Row | Concentration of brexpiprazole formed [µM] | Concentration of evaluation compound decreased [µM] | SMILES
9 | 0.00 | 0.02 | O=c1ccc2ccc(OCCCC[N+]3(COP(=O)([O-])OCC#CCCl)CCN(c4cccc5sccc45)CC3)cc2[nH]1 [EX 63, (4-(benzo[b]thiophen-4-yl)-1-(4-((2-oxo-1,2-dihydroquinolin-7-yl)oxy)butyl)piperazin-1-ium-1-yl)methyl (4-chlorobut-2-yn-1-yl) phosphate]
10 | 0.00 | 0.09 | CCOC(=O)CCCC(=O)OCOP(=O)([O-])OC[N+]1(CCCCOc2ccc3ccc(=O)[nH]c3c2)CCN(c2cccc3sccc23)CC1 [EX 68, (4-(benzo[b]thiophen-4-yl)-1-(4-((2-oxo-1,2-dihydroquinolin-7-yl)oxy)butylpiperazin-1-ium-1-yl)methyl (((5-ethoxy-5-oxopentanoyl)oxy)methyl) phosphate]
11 | 0.00 | 0.15 | COc1ccc(COC(=O)CC(C)(C)CC(=O)OCOP(=O)([O-])OC[N+]2(CCCCOc3ccc4ccc(=O)[nH]c4c3)CCN(c3cccc4sccc34)CC2)cc1 [EX 72, (4-(benzo[b]thiophen-4-yl)-1-(4-((2-oxo-1,2-dihydroquinolin-7-yl)oxy)butyl)piperazin-1-ium-1-yl)methyl (((5-((4-methoxybenzyl)oxy)-3,3-dimethyl-5-oxopentanoyl)oxy)methyl) phosphate]
12 | 0.00 | 0.13 | CC(C)NC(=O)CCCC(=O)OCOP(=O)([O-])OC[N+]1(CCCCOc2ccc3ccc(=O)[nH]c3c2)CCN(c2cccc3sccc23)CC1 [EX 73, (4-(benzo[b]thiophen-4-yl)-1-(4-((2-oxo-1,2-dihydroquinolin-7-yl)oxy)butyl)piperazin-1-ium-1-yl)methyl (((5-(isopropylamino)-5-oxopentanoyl)oxy)methyl) phosphate]
13 | 0.00 | 0.07 | CC1(C)OCC(COC(=O)CCCCC(=O)OCOP(=O)([O-])OC[N+]2(CCCCOc3ccc4ccc(=O)[nH]c4c3)CCN(c3cccc4sccc34)CC2)CO1 [EX 75, (4-(benzo[b]thiophen-4-yl)-1-(4-((2-oxo-1,2-dihydroquinolin-7-yl)oxy)butyl)piperazin-1-ium-1-yl)methyl (((6-((2,2-dimethyl-1.3-dioxan-5-yl)methoxy)-6-oxohexanoyl)oxy)methyl) phosphate]
14 | 0.00 | 0.00 | CC(C)NC(=O)CCCCCCCCC(=O)OCOP(=O)([O-])OC[N+]1(CCCCOc2ccc3ccc(=O)[nH]c3c2)CCN(c2cccc3sccc23)CC1 [EX 76, (4-(benzo[b]thiophen-4-yl)-1-(4-((2-oxo-1,2-dihydroquinolin-7-yl)oxy)butyl)piperazin-1-ium-1-yl)methyl (((10-(isopropylamino)-10-oxodecanoyl)oxy)methyl) phosphate]
15 | 0.00 | 0.04 | O=C(OCCCCCCOP(=O)([O-])OC[N+]1(CCCCOc2ccc3ccc(=O)[nH]c3c2)CCN(c2cccc3sccc23)CC1)c1ccc([N+](=O)[O-])cc1 [EX 85, (4-(benzo[b]thiophen-4-yl)-1-(4-((2-oxo-1,2-dihydroquinolin-7-yl)oxy)butyl)piperazin-1-ium-1-yl)methyl (6-((4-nitrobenzoyl)oxy)hexyl) phosphate]
